tested on: Maillard reaction; assay: Inhibitory effect on Maillard reaction in vitro (bovine serum albumin + glucose, fluorescence); format: biochemical; conditions: test compound 6 mM; bovine serum albumin 100 mg/ml, glucose 200 mM, 0.5 M phosphate buffer pH 7.38, one week at 37°C; fluorescence ex 360 nm / em 450 nm
Description: In order to evaluate the inhibitory effect on Maillard reaction in vitro, of the compounds in the present invention, the measurement was carried out under conditions described below. Bovine serum albumin (100 mg/ml), glucose (200 mM) and test compound (6 mM, 30 mM in example 2 and 2(a)) were dissolved in 0.5 M phosphatic buffer solution (pH 7.38), and the mixture was incubated for a week at 37°C. After incubation, the incubated medium was diluted 100 times with the same phosphatic buffer solution, and the fluorescence spectrum was measured at the excitation maximum of 360nm and the emission maximum of 450 nm. Inhibition percentage of the test compounds was calculated by the following equation: [table]

| Structure (SMILES) | Inhibitory effect (%) |
| --- | --- |
| CN(N)C(=N)NCc1ccccc1.I [1 (r), 1-amino-1-methyl-3-benzylguanidine hydroiodide] | 36 |
| Cl.N=C(NN)N1CCOCC1 [1 (v), 4-morpholinecarbohydrazide imide hydrochloride] | 36 |
| CCCCN(CCCC)C(=N)NN [1 (g), 1-amino-3,3-n-butylguanidine hydroiodide] | 34 |
| COc1ccc(CNC(=N)NN)cc1.I [1 (f), 1-amino-3-(4-methoxybenzyl) guanidine hydroiodide] | 54 |
| I.N=C(NN)NCc1cccc([N+](=O)[O-])c1 [1 (i), 1-amino-3-(3-nitrobenzyl) guanidine hydroiodide] | 57 |
| N=C(N)N(N)CCCc1ccccc1 [2 (b), 1-amino-1-(3-phenylpropyl) guanidine] | 50 |
| N=C(N)N(N)CC1CCCC1 [2 (c), 1-amino-1-cyclopenthylmethyl guanidine] | 56 |
| N=C(NN)NCc1cccc2ccccc12 [1 (h), 1-amino-3-(1-naphtylmethyl) guanidine hydroiodide] | 51 |
| I.N=C(NN)NCc1ccc(F)cc1 [1 (e), 1-amino-3-(4-fluorobenzyl) guanidine hydroiodide] | 43 |
| I.N=C(NN)NCc1ccccc1 [Example 1, 1-amino-3-benzylguanidine hydroiodide] | 63 |
| Cl.N=C(NN)N1CCCC1 [1 (u), 1-pyrrolidinecarbohydrazide imide hydrochloride] | 43 |
| I.N=C(NN)NCCc1ccccc1 [Example 1 (a), 1-amino-3-phenethylguanidine hydroiodide] | 72 |
| CN(C(=N)NN)c1ccccc1.I [1 (o), 1-amino-3-methyl-3-phenyl guanidine hydroiodide] | 54 |

same assay, conditions: test compound 30 mM (example 2 and 2(a)); bovine serum albumin 100 mg/ml, glucose 200 mM, 0.5 M phosphate buffer pH 7.38, one week at 37°C; fluorescence ex 360 nm / em 450 nm

| Structure (SMILES) | Inhibitory effect (%) |
| --- | --- |
| N=C(N)N(N)Cc1ccccc1 [Example 2 (a), 1-amino-1-benzylguanidine] | 50 |
| N=C(N)N(N)CCc1ccccc1 [Example 2, 1-Amino-1-phenethylguanidine] | 71 |

tested on: advanced glycosylation end products in arterial wall connective tissue protein; assay: not given; conditions: administered to diabetic rats; Brownlee et al., Science, 232, 1629 (1986); cited from earlier work

| Structure (SMILES) | inhibits diabetes-induced accumulation of advanced glycosylation end products in arterial wall connective tissue protein |
| --- | --- |
| N=C(N)NN [aminoguanidine] | inhibits |

tested on: Maillard reaction; assay: not given; conditions: Brownlee et al., Science, 232, 1629 (1986); cited from earlier work

| Structure (SMILES) | inhibits Maillard reaction in vitro |
| --- | --- |
| N=C(N)NN [aminoguanidine] | inhibits |
